ChEMBL document CHEMBL3991601, “The target landscape of clinical kinase drugs” (Science, 2017)
Calls of active or inactive are those of the source. Rule as the data show it, for most assays here: actives have a measured Kd and inactives only a lower limit.

Assays:
[1] = target: Receptor-interacting serine/threonine-protein kinase 2 (Homo sapiens, UniProt O43353)
[2] = target: Myosin light chain kinase, smooth muscle (Homo sapiens, UniProt Q15746)
[3] = target: Tyrosine-protein kinase HCK (Homo sapiens, UniProt P08631)
[4] = target: T1, Dual specificity mitogen-activated protein kinase kinase 3 (Homo sapiens, UniProt P46734)
T1 sequence (P46734 whole entry): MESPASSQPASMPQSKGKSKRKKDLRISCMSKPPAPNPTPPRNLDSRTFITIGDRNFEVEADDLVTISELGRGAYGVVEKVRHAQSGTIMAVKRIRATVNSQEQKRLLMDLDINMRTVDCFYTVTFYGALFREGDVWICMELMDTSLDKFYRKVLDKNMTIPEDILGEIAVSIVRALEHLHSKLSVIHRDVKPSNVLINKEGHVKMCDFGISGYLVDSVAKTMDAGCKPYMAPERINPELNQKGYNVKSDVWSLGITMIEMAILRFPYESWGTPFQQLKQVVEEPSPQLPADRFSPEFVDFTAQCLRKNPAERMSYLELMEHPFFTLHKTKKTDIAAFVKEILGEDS

[5] = target: T2, Serine/threonine-protein kinase TAO1 (Homo sapiens, UniProt Q7L7X3)
T2 sequence (Q7L7X3 whole entry): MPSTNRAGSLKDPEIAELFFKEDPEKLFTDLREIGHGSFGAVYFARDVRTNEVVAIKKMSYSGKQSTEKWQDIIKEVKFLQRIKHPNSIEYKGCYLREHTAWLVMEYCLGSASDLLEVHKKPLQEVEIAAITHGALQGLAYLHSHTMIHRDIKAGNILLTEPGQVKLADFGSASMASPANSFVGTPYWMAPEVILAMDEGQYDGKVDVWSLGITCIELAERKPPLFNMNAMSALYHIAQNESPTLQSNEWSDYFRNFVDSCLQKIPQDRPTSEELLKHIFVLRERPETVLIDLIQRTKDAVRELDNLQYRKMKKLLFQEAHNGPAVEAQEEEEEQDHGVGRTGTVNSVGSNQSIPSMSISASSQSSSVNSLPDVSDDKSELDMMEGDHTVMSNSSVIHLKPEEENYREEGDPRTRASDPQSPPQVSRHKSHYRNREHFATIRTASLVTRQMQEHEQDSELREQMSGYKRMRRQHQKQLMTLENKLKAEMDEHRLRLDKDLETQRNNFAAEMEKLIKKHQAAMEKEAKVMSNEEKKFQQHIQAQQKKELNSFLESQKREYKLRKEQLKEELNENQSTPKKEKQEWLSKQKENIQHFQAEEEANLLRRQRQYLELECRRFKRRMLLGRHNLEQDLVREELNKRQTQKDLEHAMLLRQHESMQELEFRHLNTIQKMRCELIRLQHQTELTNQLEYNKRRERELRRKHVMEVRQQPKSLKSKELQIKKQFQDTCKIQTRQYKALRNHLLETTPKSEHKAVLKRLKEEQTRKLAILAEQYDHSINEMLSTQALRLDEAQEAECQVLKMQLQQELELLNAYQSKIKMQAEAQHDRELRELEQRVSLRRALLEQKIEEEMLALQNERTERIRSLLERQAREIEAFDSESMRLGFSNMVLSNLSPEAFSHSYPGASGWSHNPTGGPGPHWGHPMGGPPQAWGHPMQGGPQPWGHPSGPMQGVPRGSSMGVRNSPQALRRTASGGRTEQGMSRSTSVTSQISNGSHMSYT

[6] = target: T3, RNA cytidine acetyltransferase (Homo sapiens, UniProt Q9H0A0)
T3 sequence (Q9H0A0 whole entry): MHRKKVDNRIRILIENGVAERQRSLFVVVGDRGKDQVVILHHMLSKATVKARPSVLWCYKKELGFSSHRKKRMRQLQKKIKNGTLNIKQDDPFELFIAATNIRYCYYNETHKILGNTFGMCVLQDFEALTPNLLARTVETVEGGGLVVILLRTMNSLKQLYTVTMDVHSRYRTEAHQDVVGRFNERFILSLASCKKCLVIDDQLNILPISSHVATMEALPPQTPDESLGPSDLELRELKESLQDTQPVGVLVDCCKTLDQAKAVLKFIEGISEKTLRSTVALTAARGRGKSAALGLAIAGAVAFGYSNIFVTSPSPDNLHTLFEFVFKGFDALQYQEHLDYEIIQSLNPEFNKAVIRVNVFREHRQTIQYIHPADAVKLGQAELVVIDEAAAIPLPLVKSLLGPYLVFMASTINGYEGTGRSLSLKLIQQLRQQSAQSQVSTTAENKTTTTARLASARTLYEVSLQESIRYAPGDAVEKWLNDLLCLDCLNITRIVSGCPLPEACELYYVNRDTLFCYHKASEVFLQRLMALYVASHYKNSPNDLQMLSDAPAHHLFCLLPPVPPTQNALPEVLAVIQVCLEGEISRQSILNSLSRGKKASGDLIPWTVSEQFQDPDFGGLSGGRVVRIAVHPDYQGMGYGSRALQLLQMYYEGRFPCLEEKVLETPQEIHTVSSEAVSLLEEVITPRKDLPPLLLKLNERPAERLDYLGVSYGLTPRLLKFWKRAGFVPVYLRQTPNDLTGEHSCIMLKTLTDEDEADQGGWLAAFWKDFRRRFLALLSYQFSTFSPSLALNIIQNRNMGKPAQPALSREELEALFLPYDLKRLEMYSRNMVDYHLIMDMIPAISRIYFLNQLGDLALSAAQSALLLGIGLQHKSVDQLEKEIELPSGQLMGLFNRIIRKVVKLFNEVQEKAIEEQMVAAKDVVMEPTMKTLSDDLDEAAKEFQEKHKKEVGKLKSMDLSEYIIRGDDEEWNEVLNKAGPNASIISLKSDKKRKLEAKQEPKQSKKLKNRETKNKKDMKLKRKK

[7] = target: Serine/threonine-protein kinase B-raf (Homo sapiens, UniProt P15056)
[8] = target: Mitogen-activated protein kinase kinase kinase kinase 4 (Homo sapiens, UniProt O95819)
[9] = target: Mitogen-activated protein kinase kinase kinase kinase 1 (Homo sapiens, UniProt Q92918)
[10] = target: AP2-associated protein kinase 1 (Homo sapiens, UniProt Q2M2I8)
[11] = target: Cyclin-dependent kinase 4 (Homo sapiens, UniProt P11802)
Also: in the data inactive means no Kd found up to 30 µM.

Sequence of AP2-associated protein kinase 1 (Q2M2I8 whole entry): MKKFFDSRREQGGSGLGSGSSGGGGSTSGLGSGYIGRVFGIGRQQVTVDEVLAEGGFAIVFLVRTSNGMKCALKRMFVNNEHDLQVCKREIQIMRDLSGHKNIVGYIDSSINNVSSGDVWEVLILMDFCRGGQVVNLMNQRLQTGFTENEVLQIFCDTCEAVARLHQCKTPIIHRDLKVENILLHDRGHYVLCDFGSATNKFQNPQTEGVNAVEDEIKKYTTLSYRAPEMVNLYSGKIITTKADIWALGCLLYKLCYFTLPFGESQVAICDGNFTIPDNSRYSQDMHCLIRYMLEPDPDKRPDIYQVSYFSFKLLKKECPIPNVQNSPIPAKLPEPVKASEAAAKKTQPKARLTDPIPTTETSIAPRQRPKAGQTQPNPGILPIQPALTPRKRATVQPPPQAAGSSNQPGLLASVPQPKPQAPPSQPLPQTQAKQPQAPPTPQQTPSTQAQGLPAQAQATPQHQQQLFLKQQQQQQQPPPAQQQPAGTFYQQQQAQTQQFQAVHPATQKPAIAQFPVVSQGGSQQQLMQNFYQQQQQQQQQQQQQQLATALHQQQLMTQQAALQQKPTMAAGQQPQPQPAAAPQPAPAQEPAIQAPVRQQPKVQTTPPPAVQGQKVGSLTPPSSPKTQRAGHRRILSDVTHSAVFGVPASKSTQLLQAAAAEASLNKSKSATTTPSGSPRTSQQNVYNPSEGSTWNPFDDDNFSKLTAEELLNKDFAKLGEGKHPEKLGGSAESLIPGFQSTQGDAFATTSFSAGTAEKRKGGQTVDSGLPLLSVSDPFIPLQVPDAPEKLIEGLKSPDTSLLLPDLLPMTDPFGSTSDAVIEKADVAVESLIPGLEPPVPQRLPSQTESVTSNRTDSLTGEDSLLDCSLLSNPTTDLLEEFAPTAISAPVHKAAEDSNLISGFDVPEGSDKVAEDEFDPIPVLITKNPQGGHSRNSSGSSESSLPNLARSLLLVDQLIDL
Sequence of Tyrosine-protein kinase HCK (P08631 whole entry): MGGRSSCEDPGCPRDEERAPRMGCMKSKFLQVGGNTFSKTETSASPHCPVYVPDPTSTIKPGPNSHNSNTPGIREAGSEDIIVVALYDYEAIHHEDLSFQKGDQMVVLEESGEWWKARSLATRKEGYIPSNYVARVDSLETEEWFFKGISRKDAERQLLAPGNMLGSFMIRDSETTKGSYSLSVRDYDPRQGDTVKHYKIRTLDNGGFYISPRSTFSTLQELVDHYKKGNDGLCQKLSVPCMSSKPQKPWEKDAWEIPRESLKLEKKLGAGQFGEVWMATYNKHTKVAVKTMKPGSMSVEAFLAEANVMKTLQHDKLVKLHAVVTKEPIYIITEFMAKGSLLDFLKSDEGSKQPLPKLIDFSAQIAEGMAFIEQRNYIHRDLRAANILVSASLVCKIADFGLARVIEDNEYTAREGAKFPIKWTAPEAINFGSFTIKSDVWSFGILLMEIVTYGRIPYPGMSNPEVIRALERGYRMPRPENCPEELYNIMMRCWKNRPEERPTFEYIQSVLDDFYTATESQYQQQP
Sequence of Receptor-interacting serine/threonine-protein kinase 2 (O43353 whole entry): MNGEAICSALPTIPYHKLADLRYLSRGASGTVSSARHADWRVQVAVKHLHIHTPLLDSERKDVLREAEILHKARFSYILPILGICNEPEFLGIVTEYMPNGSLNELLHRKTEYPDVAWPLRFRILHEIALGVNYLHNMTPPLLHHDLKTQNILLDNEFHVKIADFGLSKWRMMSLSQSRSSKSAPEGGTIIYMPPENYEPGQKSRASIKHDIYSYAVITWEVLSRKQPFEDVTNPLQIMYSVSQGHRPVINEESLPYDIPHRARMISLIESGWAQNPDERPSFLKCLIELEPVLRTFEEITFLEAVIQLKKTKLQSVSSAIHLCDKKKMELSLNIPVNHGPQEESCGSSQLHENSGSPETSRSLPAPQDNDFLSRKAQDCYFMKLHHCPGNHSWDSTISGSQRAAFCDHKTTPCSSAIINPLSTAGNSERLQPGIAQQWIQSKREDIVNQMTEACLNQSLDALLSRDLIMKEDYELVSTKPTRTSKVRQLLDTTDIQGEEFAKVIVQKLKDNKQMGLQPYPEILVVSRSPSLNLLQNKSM
Sequence of Myosin light chain kinase, smooth muscle (Q15746 whole entry): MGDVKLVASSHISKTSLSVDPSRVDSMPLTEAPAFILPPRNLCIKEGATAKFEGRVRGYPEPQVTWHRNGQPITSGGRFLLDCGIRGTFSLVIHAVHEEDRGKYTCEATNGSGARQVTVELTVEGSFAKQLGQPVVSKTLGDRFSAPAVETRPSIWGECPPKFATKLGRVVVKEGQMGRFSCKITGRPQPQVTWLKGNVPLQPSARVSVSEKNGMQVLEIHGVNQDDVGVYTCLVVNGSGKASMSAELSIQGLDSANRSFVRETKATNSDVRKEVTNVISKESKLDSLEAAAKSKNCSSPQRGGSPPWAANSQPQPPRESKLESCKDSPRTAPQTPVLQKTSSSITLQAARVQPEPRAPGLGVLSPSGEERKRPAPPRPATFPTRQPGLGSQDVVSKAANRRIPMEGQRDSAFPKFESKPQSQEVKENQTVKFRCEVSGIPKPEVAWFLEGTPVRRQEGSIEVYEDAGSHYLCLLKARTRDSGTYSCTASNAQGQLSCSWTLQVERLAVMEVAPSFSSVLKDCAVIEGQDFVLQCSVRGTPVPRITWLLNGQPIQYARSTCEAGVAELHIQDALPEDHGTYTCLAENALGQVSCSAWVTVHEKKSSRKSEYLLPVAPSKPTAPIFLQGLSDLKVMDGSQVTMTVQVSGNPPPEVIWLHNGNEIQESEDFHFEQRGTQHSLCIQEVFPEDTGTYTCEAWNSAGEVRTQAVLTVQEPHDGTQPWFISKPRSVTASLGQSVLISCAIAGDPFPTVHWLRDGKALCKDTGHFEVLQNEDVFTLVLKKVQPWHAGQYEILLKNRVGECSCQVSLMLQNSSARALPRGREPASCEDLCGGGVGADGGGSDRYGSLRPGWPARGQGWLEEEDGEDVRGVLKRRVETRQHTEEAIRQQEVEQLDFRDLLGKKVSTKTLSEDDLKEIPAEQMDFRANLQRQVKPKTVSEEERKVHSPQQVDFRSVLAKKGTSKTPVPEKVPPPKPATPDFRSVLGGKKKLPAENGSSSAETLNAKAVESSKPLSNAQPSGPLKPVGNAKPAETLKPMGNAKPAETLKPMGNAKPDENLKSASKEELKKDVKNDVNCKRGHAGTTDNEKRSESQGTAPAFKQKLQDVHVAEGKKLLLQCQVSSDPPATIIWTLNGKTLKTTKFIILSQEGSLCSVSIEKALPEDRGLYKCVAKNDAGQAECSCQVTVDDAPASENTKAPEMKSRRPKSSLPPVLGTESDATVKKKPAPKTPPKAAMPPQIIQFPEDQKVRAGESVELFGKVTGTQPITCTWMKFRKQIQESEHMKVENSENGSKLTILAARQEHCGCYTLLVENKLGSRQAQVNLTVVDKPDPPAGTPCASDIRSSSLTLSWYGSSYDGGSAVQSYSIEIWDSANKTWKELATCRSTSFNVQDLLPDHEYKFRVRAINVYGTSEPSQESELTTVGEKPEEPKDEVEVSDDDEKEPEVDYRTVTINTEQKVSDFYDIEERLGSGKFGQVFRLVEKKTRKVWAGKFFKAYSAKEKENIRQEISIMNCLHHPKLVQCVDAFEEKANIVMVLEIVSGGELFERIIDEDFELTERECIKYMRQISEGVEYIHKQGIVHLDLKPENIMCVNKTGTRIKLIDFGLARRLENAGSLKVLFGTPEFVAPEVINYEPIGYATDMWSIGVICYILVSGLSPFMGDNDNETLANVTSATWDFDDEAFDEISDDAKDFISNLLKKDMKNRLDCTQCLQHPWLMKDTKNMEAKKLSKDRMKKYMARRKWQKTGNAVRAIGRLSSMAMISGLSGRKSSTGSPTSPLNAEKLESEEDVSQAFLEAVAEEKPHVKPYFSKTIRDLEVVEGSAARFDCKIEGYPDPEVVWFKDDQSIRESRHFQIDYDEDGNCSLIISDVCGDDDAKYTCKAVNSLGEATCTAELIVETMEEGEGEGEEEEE
Sequence of Serine/threonine-protein kinase B-raf (P15056 whole entry): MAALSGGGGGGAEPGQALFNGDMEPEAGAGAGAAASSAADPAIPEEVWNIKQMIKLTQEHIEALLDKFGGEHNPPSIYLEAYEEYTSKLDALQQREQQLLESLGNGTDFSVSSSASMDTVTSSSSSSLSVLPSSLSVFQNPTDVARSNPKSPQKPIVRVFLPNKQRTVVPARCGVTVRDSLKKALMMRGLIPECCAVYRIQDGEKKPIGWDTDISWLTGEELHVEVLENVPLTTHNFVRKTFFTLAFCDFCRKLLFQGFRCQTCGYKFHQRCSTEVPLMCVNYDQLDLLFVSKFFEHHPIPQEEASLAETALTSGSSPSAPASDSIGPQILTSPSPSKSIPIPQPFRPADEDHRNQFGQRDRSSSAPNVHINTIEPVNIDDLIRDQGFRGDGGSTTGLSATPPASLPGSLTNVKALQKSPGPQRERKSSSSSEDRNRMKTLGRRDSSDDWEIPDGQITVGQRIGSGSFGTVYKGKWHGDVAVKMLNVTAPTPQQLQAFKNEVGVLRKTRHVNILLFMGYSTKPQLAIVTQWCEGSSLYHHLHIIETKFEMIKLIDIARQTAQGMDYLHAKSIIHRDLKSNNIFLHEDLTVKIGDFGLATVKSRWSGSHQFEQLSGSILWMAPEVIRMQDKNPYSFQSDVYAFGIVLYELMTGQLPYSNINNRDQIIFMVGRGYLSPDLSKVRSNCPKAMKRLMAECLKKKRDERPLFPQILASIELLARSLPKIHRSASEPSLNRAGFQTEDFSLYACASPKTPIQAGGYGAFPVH
Sequence of Cyclin-dependent kinase 4 (P11802 whole entry): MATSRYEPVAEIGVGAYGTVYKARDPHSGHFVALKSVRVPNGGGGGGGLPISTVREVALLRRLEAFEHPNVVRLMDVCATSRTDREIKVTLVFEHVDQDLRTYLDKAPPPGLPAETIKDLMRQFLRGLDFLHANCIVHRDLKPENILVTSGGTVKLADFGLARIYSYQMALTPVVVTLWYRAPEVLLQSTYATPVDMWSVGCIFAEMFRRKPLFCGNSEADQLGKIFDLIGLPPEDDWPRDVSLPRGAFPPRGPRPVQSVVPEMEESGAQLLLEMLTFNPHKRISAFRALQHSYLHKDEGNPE

Kd [1]	Kd [2]	Kd [3]	Kd [4]	Kd [5]	Kd [6]	Kd [7]	Kd [8]	Kd [9]	Kd [10]	Kd [11]	SMILES
> 30 µM (inactive)	> 30 µM (inactive)	> 30 µM (inactive)	> 30 µM (inactive)	> 30 µM (inactive)	> 30 µM (inactive)	> 30 µM (inactive)	> 30 µM (inactive)	> 30 µM (inactive)	> 30 µM (inactive)	> 30 µM (inactive)	COc1ccc(-c2ccc3c(N4CCOC[C@@H]4C)nc(N4CCOC[C@@H]4C)nc3n2)cc1CO [AZD-8055]
1.47 µM (active)	1.21 µM	> 30 µM (inactive)	> 30 µM (inactive)	> 30 µM (inactive)	> 30 µM (inactive)	1.14 µM (active)	> 30 µM (inactive)	> 30 µM (inactive)	> 30 µM (inactive)	> 30 µM (inactive)	Cc1ccc(NC(=O)c2ccc(CN3CC[C@H](N(C)C)C3)c(C(F)(F)F)c2)cc1Nc1nccc(-c2cncnc2)n1 [BAFETINIB]
> 30 µM (inactive)	> 30 µM (inactive)	> 30 µM (inactive)	> 30 µM (inactive)	> 30 µM (inactive)	> 30 µM (inactive)	> 30 µM (inactive)	> 30 µM (inactive)	> 30 µM (inactive)	> 30 µM (inactive)	> 30 µM (inactive)	CNC(=O)c1ccc(-c2cnc3ncc(Cc4ccc5ncccc5c4)n3n2)cc1F [CAPMATINIB]
> 30 µM (inactive)	> 30 µM (inactive)	0.283 µM (active)	> 30 µM (inactive)	> 30 µM (inactive)	> 30 µM (inactive)	> 30 µM (inactive)	0.6 µM	> 30 µM (inactive)	> 30 µM (inactive)	> 30 µM (inactive)	COCCNCc1ccc(-c2cc3nccc(Oc4ccc(NC(=S)NC(=O)Cc5ccc(F)cc5)cc4F)c3s2)nc1 [GLESATINIB]
> 30 µM (inactive)	> 30 µM (inactive)	> 30 µM (inactive)	> 30 µM (inactive)	0.002 µM (active)	> 30 µM (inactive)	> 30 µM (inactive)	> 30 µM (inactive)	> 30 µM (inactive)	0.035 µM (active)	> 30 µM (inactive)	O=C1NC(=O)/C(=C/c2ccc3nccc(-c4ccncc4)c3c2)S1 [GSK-1059615]
> 30 µM (inactive)	> 30 µM (inactive)	> 30 µM (inactive)	> 30 µM (inactive)	> 30 µM (inactive)	> 30 µM (inactive)	> 30 µM (inactive)	> 30 µM (inactive)	> 30 µM (inactive)	> 30 µM (inactive)	> 30 µM (inactive)	CC[C@H](Nc1ncnc2[nH]cnc12)c1nc2cccc(F)c2c(=O)n1-c1ccccc1 [IDELALISIB]
> 30 µM (inactive)	> 30 µM (inactive)	> 30 µM (inactive)	> 30 µM (inactive)	> 30 µM (inactive)	> 30 µM (inactive)	> 30 µM (inactive)	> 30 µM (inactive)	> 30 µM (inactive)	> 30 µM (inactive)	> 30 µM (inactive)	Cn1cc(-c2ccc3nnc(C(F)(F)c4ccc5ncccc5c4)n3n2)cn1 [JNJ-38877605]

Continued, molecule first:

SMILES	Kd [1]	Kd [2]	Kd [3]	Kd [4]	Kd [5]	Kd [6]	Kd [7]	Kd [8]	Kd [9]	Kd [10]	Kd [11]
COc1cc(CCc2cc(NC(=O)c3ccc(N4C[C@@H](C)N[C@@H](C)C4)cc3)n[nH]2)cc(OC)c1 [AZD-4547]	> 30 µM (inactive)	> 30 µM (inactive)	> 30 µM (inactive)	> 30 µM (inactive)	> 30 µM (inactive)	> 30 µM (inactive)	> 30 µM (inactive)	> 30 µM (inactive)	0.354 µM (active)	> 30 µM (inactive)	> 30 µM (inactive)
C[C@@H](Nc1cc(F)cc(F)c1)c1cc(C(=O)N(C)C)cc2c(=O)cc(N3CCOCC3)oc12 [AZD-8186]	> 30 µM (inactive)	> 30 µM (inactive)	> 30 µM (inactive)	> 30 µM (inactive)	> 30 µM (inactive)	> 30 µM (inactive)	> 30 µM (inactive)	> 30 µM (inactive)	> 30 µM (inactive)	> 30 µM (inactive)	> 30 µM (inactive)
CCS(=O)(=O)N1CC(CC#N)(n2cc(-c3ncnc4[nH]ccc34)cn2)C1 [BARICITINIB]	> 30 µM (inactive)	> 30 µM (inactive)	> 30 µM (inactive)	> 30 µM (inactive)	> 30 µM (inactive)	> 30 µM (inactive)	> 30 µM (inactive)	> 30 µM (inactive)	> 30 µM (inactive)	0.046 µM (active)	> 30 µM (inactive)
Cc1cc2c(F)c(Oc3ncnn4cc(OC[C@@H](C)OC(=O)[C@H](C)N)c(C)c34)ccc2[nH]1 [BRIVANIB ALANINATE]	> 30 µM (inactive)	> 30 µM (inactive)	> 30 µM (inactive)	> 30 µM (inactive)	> 30 µM (inactive)	> 30 µM (inactive)	> 30 µM (inactive)	46.2 µM (active)	> 30 µM (inactive)	> 30 µM (inactive)	> 30 µM (inactive)
O=C(c1ccc(F)c(F)c1Nc1ccc(I)cc1F)N1CC(O)([C@@H]2CCCCN2)C1 [COBIMETINIB]	> 30 µM (inactive)	> 30 µM (inactive)	> 30 µM (inactive)	> 30 µM (inactive)	> 30 µM (inactive)	> 30 µM (inactive)	> 30 µM (inactive)	> 30 µM (inactive)	> 30 µM (inactive)	> 30 µM (inactive)	> 30 µM (inactive)
CO[C@H]1C[C@@H]2CC[C@@H](C)[C@@](O)(O2)C(=O)C(=O)N2CCCC[C@H]2C(=O)O[C@H]([C@H](C)C[C@@H]2CC[C@@H](OCCO)[C@H](OC)C2)CC(=O)[C@H](C)/C=C(\C)[C@@H](O)[C@@H](OC)C(=O)[C@H](C)C[C@H](C)/C=C/C=C/C=C/1C [EVEROLIMUS]	> 30 µM (inactive)	> 30 µM (inactive)	> 30 µM (inactive)	> 30 µM (inactive)	> 30 µM (inactive)	> 30 µM (inactive)	> 30 µM (inactive)	> 30 µM (inactive)	> 30 µM (inactive)	> 30 µM (inactive)	> 30 µM (inactive)
